For orientation: half-life means the time needed for the level to fall by half in the phase considered. Low readings indicate rapid decline, high ones slow decline.

A short description of data set [1]: in vitro. Conditions: human, liver microsomes.
Data set [2] is described as follows: in vitro. Conditions: human, plasma.
A short description of data set [3]: in vitro. Conditions: human, liver microsomes. The source holds these as a separate data set.
Data set [4] in a line: in vitro. The note with it: human, plasma. The source holds these as a separate data set.
Data set [5] in a line: in vitro. The note with it: human, liver microsomes. The source holds these as a separate data set. A general note: Liver microsomes are vesicles of endoplasmic reticulum, rich in cytochrome P450 enzymes.
Data set [6] can be described thus: in vitro. Conditions: human, plasma. This is another data set of the same source.
Data set [7] in a line: in vitro. Conditions: human, plasma. This is another data set of the same source.
The nature of data set [8]: in vitro. Conditions: human, plasma. The source holds these as a separate data set.

`C[C@]12CC[C@H]3[C@@H](CCC4=CC(=O)CC[C@@]43C)[C@@H]1CC[C@@H]2O` [TESTOSTERONE] registered a half-life in the data set “in vitro [1]” of 11.4 min.

`O=C(O)Cc1ccccc1Nc1c(Cl)cccc1Cl` [DICLOFENAC]: the half-life in “in vitro [1]” turned out to be 3.2 min.

Compound `CC(C)[N+](C)(CCOC(=O)C1c2ccccc2Oc2ccccc21)C(C)C.[Br-]` [PROPANTHELINE BROMIDE] gave a half-life in “in vitro [2]” of 19.8 min.

For the compound `COc1c(Nc2cc(C)[nH]n2)nc(Sc2ccc(S(=O)(=O)Cc3cccc([N+](=O)[O-])c3F)cc2F)nc1N1CCOCC1`, the figures for the fraction remaining at 1 h in the data set “in vitro [3]”, in “in vitro [4]” and in “in vitro [5]” were 98.6%, 95.4% and 1.7%, respectively. In addition, in “in vitro [6]”, the fraction remaining at 10 min was 101%. The share remaining at 2 h in “in vitro [7]” amounted to 97.3%. For the same compound, the fraction remaining at 0.5 h in “in vitro [8]” amounted to 95%.

For the origin of these results see ChEMBL document CHEMBL5380792, “Discovery of CZS-241: A Potent, Selective, and Orally Available Polo-Like Kinase 4 Inhibitor for the Treatment of Chronic Myeloid Leukemia” (J Med Chem, 2023).
